The values that follow come from ChEMBL document CHEMBL2203114, “The Discovery of MK-4256, a Potent SSTR3 Antagonist as a Potential Treatment of Type 2 Diabetes” (ACS Med Chem Lett, 2012).

One may read the IC50 as the concentration that inhibits the measured activity by half. One may read the inhibition as the change of the read-out against control, counted positive when it falls. Usually Ki stands for the equilibrium dissociation constant of an inhibitor or competing ligand from its target. What is called AUC(0-t) is exposure summed from dosing to a finite time, without extrapolation to infinity. Broadly, the clearance is a measure of how efficiently the substance is removed, as volume per time. What is called half-life is the time needed for the level to fall by half in the phase considered. Usually bioavailability stands for dose-corrected exposure relative to a reference, in per cent. What is called inhibition in vivo is the relative decrease from the control value, in per cent.

For data set [1], the target named is T1, Somatostatin receptor type 3 (Homo sapiens, UniProt P32745). Kind of data set: biochemical.
T1 sequence (P32745 whole entry): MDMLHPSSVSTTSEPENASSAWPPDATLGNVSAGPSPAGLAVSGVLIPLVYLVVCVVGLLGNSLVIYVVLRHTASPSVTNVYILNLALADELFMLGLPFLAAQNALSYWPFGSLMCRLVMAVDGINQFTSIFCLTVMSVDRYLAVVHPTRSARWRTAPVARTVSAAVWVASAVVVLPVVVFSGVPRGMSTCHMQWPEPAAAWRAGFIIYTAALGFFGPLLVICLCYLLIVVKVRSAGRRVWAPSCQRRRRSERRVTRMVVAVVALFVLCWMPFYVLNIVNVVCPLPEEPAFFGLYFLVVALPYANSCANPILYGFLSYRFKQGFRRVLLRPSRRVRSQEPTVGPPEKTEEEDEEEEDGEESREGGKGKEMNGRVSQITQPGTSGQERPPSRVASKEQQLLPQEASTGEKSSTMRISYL
Description: Displacement of [125I]SS-28 from human SSTR3 transfected in CHO cells after 60 to 90 mins
The target of data set [2] is T2, Somatostatin receptor type 3 (Mus musculus, UniProt P30935).
T2 sequence (P30935 whole entry): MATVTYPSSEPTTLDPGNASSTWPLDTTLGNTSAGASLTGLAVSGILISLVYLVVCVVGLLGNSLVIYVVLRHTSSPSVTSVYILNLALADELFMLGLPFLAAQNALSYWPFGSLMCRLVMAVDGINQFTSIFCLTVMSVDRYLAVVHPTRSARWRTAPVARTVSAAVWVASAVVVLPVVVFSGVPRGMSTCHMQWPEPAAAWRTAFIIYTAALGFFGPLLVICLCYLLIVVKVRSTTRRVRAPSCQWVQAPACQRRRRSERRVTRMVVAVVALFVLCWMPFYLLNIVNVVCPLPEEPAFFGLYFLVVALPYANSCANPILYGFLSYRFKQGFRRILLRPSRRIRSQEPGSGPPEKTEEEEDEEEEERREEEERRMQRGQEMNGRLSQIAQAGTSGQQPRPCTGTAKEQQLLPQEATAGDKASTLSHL
For data set [3], the target named is T1, Somatostatin receptor type 3.
Description: Inhibition of human SSTR3 transfected in CHO cells assessed as inhibition of SRIF-induced reduction of cAMP accumulation after 45 mins
The target of data set [4] is T2, Somatostatin receptor type 3. Nature of the data set: biochemical.
Description: Displacement of [125I]SS-28 from mouse SSTR3 transfected in CHO cells after 60 to 90 mins
The target of data set [5] is Somatostatin receptor type 3 (Mus musculus) (UniProt P30935). Kind of data set: Inhibition of mouse SSTR3 transfected in CHO cells assessed as inhibition of SRIF-induced reduction of cAMP accumulation after 45 mins relative to control. The class given is functional, cell-based. The arrangement: concentration or dose not given beside the values. In general terms: cAMP levels reflect the balance of adenylyl cyclase and phosphodiesterase activity.
Somatostatin receptor type 3 (Mus musculus), sequence (P30935 whole entry): as above

In data set [6] the test system is Mus musculus. Kind of data set: Antidiabetic activity in C57BL/6 mouse assessed as reduction of glucose excursion at 1 mg/kg, po by OGTT. In kind it is functional. The arrangement: scale not given: the % may be the effect or the level left.
Data set [7] concerns Mus musculus. Kind of data set: Antidiabetic activity in C57BL/6N mouse assessed as reduction of blood glucose level at 10 mg/kg, po measured after 60 mins post administration. The class given is functional, organism-based. Also noted: dose 10 mg/kg.
The target in data set [8] is Voltage-gated inwardly rectifying potassium channel KCNH2 (Homo sapiens, UniProt Q12809).
Voltage-gated inwardly rectifying potassium channel KCNH2, sequence (Q12809 whole entry): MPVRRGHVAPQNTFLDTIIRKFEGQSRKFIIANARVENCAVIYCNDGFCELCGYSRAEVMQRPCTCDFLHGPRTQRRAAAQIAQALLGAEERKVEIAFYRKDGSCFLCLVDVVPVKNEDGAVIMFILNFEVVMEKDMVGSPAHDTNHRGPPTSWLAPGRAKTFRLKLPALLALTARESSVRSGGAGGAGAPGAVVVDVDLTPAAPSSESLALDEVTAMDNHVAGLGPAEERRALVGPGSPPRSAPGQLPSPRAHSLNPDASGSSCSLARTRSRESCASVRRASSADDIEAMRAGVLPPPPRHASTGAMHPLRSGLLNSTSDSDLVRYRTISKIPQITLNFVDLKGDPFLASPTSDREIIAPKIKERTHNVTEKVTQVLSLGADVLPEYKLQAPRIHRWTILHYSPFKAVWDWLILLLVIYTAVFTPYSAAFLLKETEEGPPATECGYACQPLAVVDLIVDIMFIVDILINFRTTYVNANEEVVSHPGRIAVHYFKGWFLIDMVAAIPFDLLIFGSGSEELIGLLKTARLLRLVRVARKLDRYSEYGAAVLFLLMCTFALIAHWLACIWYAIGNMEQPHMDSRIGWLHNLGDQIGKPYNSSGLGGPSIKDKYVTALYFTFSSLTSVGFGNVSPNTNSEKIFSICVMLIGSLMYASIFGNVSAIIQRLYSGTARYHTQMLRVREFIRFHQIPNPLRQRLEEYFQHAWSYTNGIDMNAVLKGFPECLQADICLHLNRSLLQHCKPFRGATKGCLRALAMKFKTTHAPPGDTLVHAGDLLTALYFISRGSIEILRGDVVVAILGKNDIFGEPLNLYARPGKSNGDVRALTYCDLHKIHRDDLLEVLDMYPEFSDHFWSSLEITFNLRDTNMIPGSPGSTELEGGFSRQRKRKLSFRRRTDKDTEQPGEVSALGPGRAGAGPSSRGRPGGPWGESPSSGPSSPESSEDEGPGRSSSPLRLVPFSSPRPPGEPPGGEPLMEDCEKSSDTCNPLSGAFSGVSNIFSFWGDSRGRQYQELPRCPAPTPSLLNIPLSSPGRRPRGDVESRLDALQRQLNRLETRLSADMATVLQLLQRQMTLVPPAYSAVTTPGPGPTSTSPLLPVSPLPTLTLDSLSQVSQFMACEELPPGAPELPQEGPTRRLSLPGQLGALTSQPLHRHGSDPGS
Description: Displacement of radiolabeled MK-499 from human ERG channel
Data set [9] concerns Mus musculus. Nature of the data set: Antidiabetic activity in C57BL/6 mouse assessed as reduction of glucose excursion at 10 mg/kg, po by ipGTT. In kind it is functional. Also noted: scale not given: the % may be the effect or the level left.
Data set [10] is described as follows: Plasma concentration in C57BL/6 mouse at 10 mg/kg, po measured after 2.5 hrs. In kind it is ADME, organism-based. The arrangement: dose 10 mg/kg, route oral.
Data set [11] can be described thus: in vivo. Conditions: rat, plasma, po, 2 mg/kg.
Data set [12] in a line: in vivo. Conditions: mouse, plasma, po, 10 mg/kg.
A short description of data set [13]: Clearance in mouse at 4 mg/kg, iv. The settings on record: in vivo.
Data set [14] can be described thus: Half life in mouse at 4 mg/kg, iv. The settings on record: in vivo.
Data set [15] is described as follows: Volume of distribution at steady state in rat at 2 mg/kg, po and 1 mg/kg, iv. The settings on record: in vivo.
Data set [16] is described as follows: Volume of distribution at steady state in mouse at 10 mg/kg, po and 4 mg/kg, iv. Conditions: in vivo.
Data set [17] in a line: in vivo. Conditions: mouse, po, 10 mg/kg.
A short description of data set [18]: Clearance in rat at 1 mg/kg, iv. The settings on record: in vivo.
A short description of data set [19]: Half life in rat at 1 mg/kg, iv. The settings on record: in vivo.
The nature of data set [20]: in vivo. The settings on record: rat, po, 2 mg/kg.
The target of data set [21] is Somatostatin receptor type 4 (Homo sapiens) (UniProt P31391). The settings on record: CHO, 20 uM.
Somatostatin receptor type 4 (Homo sapiens), sequence (P31391 whole entry): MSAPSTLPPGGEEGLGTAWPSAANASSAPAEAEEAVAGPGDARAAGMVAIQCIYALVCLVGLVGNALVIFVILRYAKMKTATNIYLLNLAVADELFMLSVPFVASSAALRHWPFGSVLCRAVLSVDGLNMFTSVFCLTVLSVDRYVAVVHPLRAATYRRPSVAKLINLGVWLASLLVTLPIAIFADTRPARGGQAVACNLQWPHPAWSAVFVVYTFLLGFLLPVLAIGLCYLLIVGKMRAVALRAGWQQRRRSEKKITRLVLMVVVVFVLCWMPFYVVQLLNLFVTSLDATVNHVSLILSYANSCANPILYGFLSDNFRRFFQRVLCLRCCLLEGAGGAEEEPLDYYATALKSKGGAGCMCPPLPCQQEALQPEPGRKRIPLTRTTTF
The target in data set [22] is Somatostatin receptor type 5 (Homo sapiens) (UniProt P35346). Nature of the data set: Inhibition of human SSTR5 transfected in CHO cells assessed as inhibition of SRIF-induced reduction of cAMP accumulation at 5 uM after 45 mins. The class given is functional, cell-based.
Somatostatin receptor type 5 (Homo sapiens), sequence (P35346 whole entry): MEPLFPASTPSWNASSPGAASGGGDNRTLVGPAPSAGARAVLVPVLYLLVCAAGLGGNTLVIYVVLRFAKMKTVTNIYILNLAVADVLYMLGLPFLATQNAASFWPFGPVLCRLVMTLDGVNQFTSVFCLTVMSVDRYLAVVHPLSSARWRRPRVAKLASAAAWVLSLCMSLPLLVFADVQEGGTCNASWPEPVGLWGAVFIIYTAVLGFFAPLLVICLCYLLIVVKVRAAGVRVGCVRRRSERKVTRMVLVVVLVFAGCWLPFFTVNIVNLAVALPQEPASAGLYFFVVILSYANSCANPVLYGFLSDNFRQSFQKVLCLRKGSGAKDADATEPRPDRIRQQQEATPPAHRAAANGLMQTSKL
Data set [23] relates to Mus musculus. Kind of data set: Antidiabetic activity in SSTR3-knockout mouse assessed as reduction of blood glucose excursion at 1 mg/kg by OGTT. The arrangement: scale not given: the % may be the effect or the level left. The class given is functional.
In data set [24] the test system is Mus musculus. Kind of data set: Antidiabetic activity in C57BL/6N mouse assessed as reduction of blood glucose level at 0.01 to 1 mg/kg, po measured over 5 hrs. The class given is functional, organism-based.
Data set [25] concerns Mus musculus. Kind of data set: Antidiabetic activity in C57BL/6N mouse assessed as reduction of blood glucose excursion at 1 mg/kg by OGTT ( Rvb = 91%). The class given is functional.
Data set [26] relates to Mus musculus. Nature of the data set: Antidiabetic activity in po dosed C57BL/6 mouse assessed as reduction of glucose excursion by OGTT. In kind it is functional, organism-based.
Data set [27] in a line: Half life in dog at 1 mg/kg, iv. The settings on record: in vivo.
Data set [28] can be described thus: Clearance in rhesus monkey at 1 mg/kg, iv. Conditions: in vivo.
The nature of data set [29]: in vivo. Conditions: dog, plasma, po, 2 mg/kg.
Data set [30] in a line: in vivo. The settings on record: rhesus monkey, plasma, po, 2 mg/kg.
A short description of data set [31]: Clearance in dog at 1 mg/kg, iv. The settings on record: in vivo.
Data set [32] can be described thus: Half life in rhesus monkey at 1 mg/kg, iv. Conditions: in vivo.
The nature of data set [33]: in vivo. The settings on record: dog, po, 2 mg/kg.
The nature of data set [34]: in vivo. The settings on record: rhesus monkey, po, 2 mg/kg.
Data set [35] in a line: Volume of distribution at steady state in dog at 1 mg/kg, iv and 2 mg/kg, po. Conditions: in vivo.
Data set [36] in a line: Volume of distribution at steady state in rhesus monkey at 1 mg/kg, iv and 2 mg/kg, po. Conditions: in vivo.

The source made the active and inactive calls.

Take `Cc1nc(C2(c3noc(C)n3)N[C@@H](c3nc(-c4ccc(F)cc4)c[nH]3)Cc3c2[nH]c2ccccc32)no1`: the IC50 in data set [1] came to 0.97 nM; in data set [2], 1.3 nM; in data set [3], 1.2 nM; in [4], 0.59 nM. Moreover, the inhibition in data set [5] is 133%. Further, the Activity in data set [6] stood at 71%.
For the molecule `Cn1cc(C2(c3cnn(C)c3)N[C@@H](c3nc(-c4ccc(F)cc4)c[nH]3)Cc3c2[nH]c2ccccc32)cn1`, the IC50 in data set [1] was determined as 0.74 nM; in data set [2], 0.48 nM; in [3] it was 0.7 nM; in [4] it was 0.46 nM. Besides, the inhibition in data set [5] was determined as 113%. For the same molecule, in [6], the Activity came out at 68%.
As for `Cc1cnc(C(=O)NCCc2ccc(S(=O)(=O)NC(=O)NC3CCCCC3)cc2)cn1`, the outcome in data set [7] was Active.
Regarding `Fc1ccc(-c2c[nH]c([C@H]3Cc4c([nH]c5ccccc45)C(c4ccccc4)(c4ccccc4)N3)n2)cc1`, the figures for the IC50 in data set [1], in [2] and in [3] were 0.76 nM, 2.4 nM and 7.3 nM, respectively. In addition, the Ki in [8] is 44 nM. Moreover, the inhibition in data set [5] was 101%.
For the molecule `Cc1nc([C@@]2(c3cnn(C)c3)N[C@H](c3nc(-c4ccc(F)cc4)c[nH]3)Cc3c2[nH]c2ccccc32)no1`, the inhibition in data set [5] was 92%. In [6], the Activity is recorded as 81%.
The corresponding values for `Cc1nc([C@@]2(c3cnn(C)c3)N[C@@H](c3nc(-c4ccc(F)cc4)c[nH]3)Cc3c2[nH]c2ccccc32)no1` are 130% and 63%.
Regarding `Fc1ccc(-c2c[nH]c([C@H]3Cc4c([nH]c5ccccc45)[C@@H](C4CCOCC4)N3)n2)cc1`, the IC50 stood at 2.8 nM in data set [1], 26 nM in data set [2], 5.7 nM in data set [3] and 1.7 nM in [4]. The Activity in data set [9] was determined as 79%. This molecule yielded a concentration at 2.5 h in data set [10] of 4600 nM. For the same molecule, in data set [5], the inhibition is 108%.
For `Cn1cc([C@@H]2N[C@@H](c3nc(-c4ccc(F)cc4)c[nH]3)Cc3c2[nH]c2ccccc32)cn1`, the IC50 worked out at 7.2 nM in [1], 26 nM in data set [2], 33 nM in data set [3] and 4.8 nM in data set [4]. In addition, the AUC(0-t) was 1.38 µM·h in [11] and 4.11 µM·h in data set [12]. In [8], this molecule registered a Ki of 2190 nM. The results for the clearance in [13] and in [18] were 99.6 mL/min/kg and 25.3 mL/min/kg, respectively. Also, in [9], the Activity is given as 84%. For the same molecule, the figures for the half-life in data set [14] and in data set [19] were 2.24 h and 2.26 h, respectively. Besides, the Vd in [15] came out at 4.59 L/kg; in [16], 10.8 L/kg. Moreover, the concentration at 2.5 h in [10] came out at 1600 nM. In addition, the inhibition in data set [5] turned out to be 66%. In addition, the figures for the bioavailability in [17] and in data set [20] were 100% and 47%, respectively.
Regarding `Cc1nc([C@H]2N[C@@H](c3nc(-c4ccc(F)cc4)c[nH]3)Cc3c2[nH]c2ccccc32)no1`, the IC50 was 19 nM in data set [1], 18 nM in data set [2] and 19 nM in data set [3]. In data set [8], the affinity, expressed as Ki, was 385 nM. In addition, in [5], the inhibition worked out at 103%.
As to `Cc1nc([C@]2(c3cnn(C)c3)N[C@H](c3nc(-c4ccc(F)cc4)c[nH]3)Cc3c2[nH]c2ccccc32)no1`, the inhibition in data set [5] amounted to 68%. For the same molecule, the Activity in [6] is listed as 80%.
As for `Cc1nc([C@]2(c3cnn(C)c3)N[C@@H](c3nc(-c4ccc(F)cc4)c[nH]3)Cc3c2[nH]c2ccccc32)no1`, the values for the inhibition in [21], in data set [22] and in data set [5] were 42%, 34% and 87%, respectively. Moreover, the Activity was 28% in data set [23], “Dose-dependent effect” in [26] and 109% in data set [6]. Moreover, the outcome in [24] was inactive. Moreover, the inhibition in vivo at 1 mg/kg in data set [25] is 112%.
In the case of `Cn1cc([C@H]2N[C@@H](c3nc(-c4ccc(F)cc4)c[nH]3)Cc3c2[nH]c2ccccc32)cn1`, the half-inhibitory concentration (IC50) in data set [1] worked out at 6.9 nM; in data set [2] it was 4.4 nM; in data set [3], 9.3 nM; in [4], 4 nM. Moreover, affinity in [8] was put at a Ki of 300 nM. For the same molecule, the Activity in data set [9] is 91%. The molecule further showed a concentration at 2.5 h in data set [10] of 1200 nM. Besides, the inhibition in data set [5] came out at 67%.
In the case of `Cc1nc([C@@H]2N[C@@H](c3nc(-c4ccc(F)cc4)c[nH]3)Cc3c2[nH]c2ccccc32)no1`, the half-life in data set [27] was 6.69 h; in [14] it was 2.58 h; in data set [32], 8.08 h; in data set [19] it was 8.14 h. For the same molecule, the IC50 in [1] turned out to be 9.2 nM; in [2] it was 29 nM; in [3] it was 58 nM; in data set [4], 8.1 nM. In addition, the clearance in [28] was found to be 2.79 mL/min/kg; in data set [13], 39.9 mL/min/kg; in [31], 1.78 mL/min/kg; in data set [18], 9.67 mL/min/kg. In addition, the AUC(0-t) was found to be 4.36 µM·h in [11], 27.6 µM·h in data set [29], 7.73 µM·h in data set [12] and 12.4 µM·h in data set [30]. The molecule also returned a Ki in data set [8] of 2210 nM. In addition, the Activity in data set [9] turned out to be 87%. Moreover, the Vd in [15] was determined as 5.83 L/kg; in data set [16], 7.21 L/kg; in [35], 0.87 L/kg; in data set [36] it was 1.75 L/kg. Also, the concentration at 2.5 h in data set [10] came out at 200 nM. Further, the bioavailability turned out to be 67% in [33], 76% in data set [17], 51% in data set [34] and 58% in data set [20]. Further, the inhibition in [5] came out at 92%.
In the case of `c1ccc(-c2c[nH]c([C@H]3Cc4c([nH]c5ccccc45)[C@@H](C4CCOCC4)N3)n2)cc1`, half-maximal inhibition in data set [3] (IC50) was put at 11 nM. Also, in data set [9], the Activity stood at 75%. In data set [10], this molecule returned a concentration at 2.5 h of 3800 nM. The inhibition in [5] worked out at 98%.
